15 molecules from patent US20120190666A1, “Heteroaryl Compounds as PIKK Inhibitors” (Amgen Inc., priority 2009, published 2012) can be followed below.

Experiment [1] deals with phosphorylation of Akt at Serine 473 in U87 MG cells. The experiment can be described thus: pAkt AlphaScreen (U87 cell). It counts as cell-based. To be noted: pAkt at Serine 473, U87 MG cells, two hours with compound. The procedure, abridged:
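U87 MG cells (5K per well, plated overnight) treated 2 h at 37 °C with compound, 25 μM to 11.9 pM final in 0.5% DMSO. Lysates assayed for Akt Ser473 phosphorylation with SureFire AlphaScreen, incubated overnight at room temperature; IC50 from percent of control.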

A further experiment has as its target mTOR (Homo sapiens, UniProt P42345). The experiment can be described thus: mTOR LanthaScreen (TR-FRET, phosphorylation of 4EBP1). Type of experiment: biochemical. The following applies: phosphorylation of GFP-4E-BP1, 10 μM ATP, 90 minutes. The procedure, abridged:
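Final reaction: 400 nM GFP-4E-BP1, 10 μM ATP, 0.15 μg/ml mTOR, compound 50 μM down to 23.84 pM (22-point 1:2 series) in 1% DMSO, buffer with 2 mM DTT; 90 min incubation.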

Molecules are shown by their SMILES.

For the molecule `Cc1nc(N)nc(-c2c(Nc3cc[nH]n3)nc3cc(C4=CCN(C(=O)OC(C)(C)C)CC4)ccn23)n1` [Cpd 183, tert-butyl 4-(3-(4-amino-6-methyl-1,3,5-triazin-2-yl)-2-(1H-pyrazol-3-ylamino)imidazo[1,2-a]pyridin-7-yl)-3,6-dihydro-1(2H)-pyridinecarboxylate], the IC50 in experiment [1] (Homo sapiens, U-87 MG, 2 h) amounted to 760 nM; against mTOR, 460 nM.

In the case of `COCCOc1ccn2c(-c3nc(C)nc(N)n3)c(Nc3cc[nH]n3)nc2c1` [Cpd 185, 3-(4-amino-6-methyl-1,3,5-triazin-2-yl)-7-(2-methoxyethoxy)-N-1H-pyrazol-3-ylimidazo[1,2-a]pyridin-2-amine], the concentration for half-maximal inhibition (IC50) in experiment [1] (Homo sapiens, U-87 MG, 2 h) was determined as 50 nM; against mTOR, 40 nM.

As for `Cc1nc(N)nc(-c2c(Nc3cc[nH]n3)nc3cc(OCCN4CCCC4)ccn23)n1` [Cpd 188], the concentration for half-maximal inhibition (IC50) in experiment [1] (Homo sapiens, U-87 MG, 2 h) worked out at 320 nM; at mTOR, 360 nM.

For the molecule `Cc1nc(N)nc(-c2c(Nc3ccn(C(=O)Nc4ccccc4)n3)nc3ccccn23)n1` [Cpd 204, 3-((3-(4-amino-6-methyl-1,3,5-triazin-2-yl)imidazo[1,2-a]pyridin-2-yl)amino)-N-phenyl-1H-pyrazole-1-carboxamide], the IC50 in experiment [1] (Homo sapiens, U-87 MG, 2 h) was determined as 90 nM; on mTOR, 90 nM.

For `Cc1nc(N)nc(-c2c(Nc3cnn(C(=O)Oc4ccccc4)c3)nc3ccccn23)n1` [Cpd 209, phenyl 4-((3-(4-amino-6-methyl-1,3,5-triazin-2-yl)imidazo[1,2-a]pyridin-2-yl)amino)-1H-pyrazole-1-carboxylate], the IC50 in experiment [1] (Homo sapiens, U-87 MG, 2 h) turned out to be 110 nM; at mTOR it was 300 nM.

As for `Cc1nc(N)cc(-c2c(Nc3ccn(-c4ccccn4)n3)nc3ccccn23)n1` [Cpd 216, 3-(6-amino-2-methyl-4-pyrimidinyl)-N-(1-(2-pyridinyl)-1H-pyrazol-3-yl)imidazo[1,2-a]pyridin-2-amine], the IC50 in experiment [1] (Homo sapiens, U-87 MG, 2 h) was 450 nM; against mTOR, 860 nM.

For `Cc1nc(N)cc(-c2c(Nc3ccn(C(=O)NCc4ccccc4)n3)nc3ccccn23)n1` [Cpd 222, 3-((3-(6-amino-2-methyl-4-pyrimidinyl)imidazo[1,2-a]pyridin-2-yl)amino)-N-benzyl-1H-pyrazole-1-carboxamide], the half-maximal inhibitory concentration (IC50) in experiment [1] (Homo sapiens, U-87 MG, 2 h) came to 1810 nM; against mTOR, 5880 nM.

`Cc1nc(N)cc(-c2c(Nc3ccn(C(=O)Nc4ccccc4C(F)(F)F)n3)nc3cccnn23)n1` [Cpd 239, 3-((3-(6-amino-2-methyl-4-pyrimidinyl)imidazo[1,2-b]pyridazin-2-yl)amino)-N-(2-(trifluoromethyl)phenyl)-1H-pyrazole-1-carboxamide]: the IC50 in experiment [1] (Homo sapiens, U-87 MG, 2 h) came out at 10 nM; against mTOR, 8 nM.

Take `Cc1nc(N)cc(-c2c(Nc3ccn(C(=O)Nc4cc(F)cc(F)c4)n3)nc3cccnn23)n1` [Cpd 242, 3-((3-(6-amino-2-methyl-4-pyrimidinyl)imidazo[1,2-b]pyridazin-2-yl)amino)-N-(3,5-difluorophenyl)-1H-pyrazole-1-carboxamide]: the 50% inhibitory concentration (IC50) in experiment [1] (Homo sapiens, U-87 MG, 2 h) stood at 80 nM; against mTOR, 80 nM.

In the case of `Cc1nc(N)cc(-c2c(Nc3ccnn3C(=O)N3CCC3)nc3cccnn23)n1` [Cpd 257, 3-(6-amino-2-methyl-4-pyrimidinyl)-N-(1-(1-azetidinylcarbonyl)-1H-pyrazol-5-yl)imidazo[1,2-b]pyridazin-2-amine], the concentration for half-maximal inhibition (IC50) in experiment [1] (Homo sapiens, U-87 MG, 2 h) stood at 1050 nM; against mTOR it was 1690 nM.

Take `COc1ccc(-c2ccc3nc(Nc4ccn[nH]4)c(-c4nc(C)nc(N)n4)n3c2)cc1CO` [Cpd 286]: the half-maximal inhibitory concentration (IC50) came to 10 nM in experiment [1] (Homo sapiens, U-87 MG, 2 h) and 120 nM at mTOR.

For the molecule `Cc1nc(N)nc(-c2c(Nc3ccn[nH]3)nc3ccc(CCC(O)CO)cn23)n1` (stereo not drawn) [Cpd 291, 4-(3-(4-amino-6-methyl-1,3,5-triazin-2-yl)-2-(1H-pyrazol-5-ylamino)-midazo[1,2-a]pyridin-6-yl)-1,2-butanediol], the IC50 in experiment [1] amounted to 170 nM; on mTOR it was 1210 nM.

Regarding `Cc1nc(N)nc(-c2c(Nc3cc[nH]n3)nc3ccc(-c4ccc(S(C)(=O)=O)cc4)cn23)n1` [Cpd 344, 3-(4-amino-6-methyl-1,3,5-triazin-2-yl)-6-(4-(methylsulfonyl)phenyl)-N-1H-pyrazol-3-ylimidazo[1,2-a]pyridin-2-amine], the IC50 in experiment [1] (Homo sapiens, U-87 MG, 2 h) worked out at 20 nM; against mTOR, 80 nM.

As for `CNS(=O)(=O)c1ccc(-c2ccc3nc(Nc4cc[nH]n4)c(-c4nc(C)nc(N)n4)n3c2)cc1` [Cpd 351, 4-(3-(4-amino-6-methyl-1,3,5-triazin-2-yl)-2-(1H-pyrazol-3-ylamino)imidazo[1,2-a]pyridin-6-yl)-N-methylbenzenesulfonamide], the IC50 stood at 30 nM in experiment [1] (Homo sapiens, U-87 MG, 2 h) and 230 nM at mTOR.

`Cc1nc(N)nc(-c2c(Nc3ccn(C)n3)nc3ccc(-c4ccc(S(C)(=O)=O)cc4)cn23)n1` [Cpd 354]: the 50% inhibitory concentration (IC50) in experiment [1] (Homo sapiens, U-87 MG, 2 h) stood at 100 nM; at mTOR, 320 nM.
